# According to patent US7276337B2, “Compositions and methods for visual ribonuclease detection assays” (Integrated DNA Technologies, Inc., priority 2000, dated 2007):
# Molecular target: T1, Ribonuclease T1 (Aspergillus oryzae, UniProt P00651)
# T1 sequence (P00651 27-130): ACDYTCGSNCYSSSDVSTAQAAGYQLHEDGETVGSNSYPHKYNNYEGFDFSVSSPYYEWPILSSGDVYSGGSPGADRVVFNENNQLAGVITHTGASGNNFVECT
# Assay: Visual detection ribonuclease assay, cleavage of Substrate ODN by RNase T1
# Format: biochemical
# Design: key to Sensitivity of Substrate ODN to Ribonuclease T1, relative signal intensity: +++ = maximum intensity; ++ = moderate intensity; + = faint but above background; − = negative (identical to background)
# Details: Substrate 500 nM; for Sensitivity of Substrate ODN to Ribonuclease T1, relative signal intensity: visual inspection, UV excitation, 37° C. 60 minutes
# Outline: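 Substrate ODNs at 500 nM in 1× Assay Buffer; RNase T1 serially diluted to final 0.001, 0.0001 and 0.00001 units/ml. After incubation (60 min at 37 °C, or 10 min at room temperature), fluorescence under UV excitation was inspected by eye and scored +++, ++, + or − by relative intensity.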
substance,measurement,setting,value
"5′ Fluorescein-AauggcA-QSY-7 3′ (NAAUGGCAN; 5' fluorescein and 3' QSY-7 labels, nucleotide chemistry not given here) [SEQ ID NO:30]","Sensitivity of Substrate ODN to Ribonuclease T1, relative signal intensity",RNase T1 10^−3 units/ml,+++
same,"Sensitivity of Substrate ODN to Ribonuclease T1, relative signal intensity",RNase T1 10^−4 units/ml,+++
same,"Sensitivity of Substrate ODN to Ribonuclease T1, relative signal intensity",RNase T1 10^−5 units/ml,+++
same,Detection of RNase T1 activity by visual examination,"final dilution factors of stock 10^−2 to 10^−7, room temperature 10 minutes",clearly detectable
